Measurements published in ChEMBL document CHEMBL2062513, “Pd-mediated functionalization of polysubstituted pyrroles: their evaluation as potential inhibitors of PDE4” (Bioorg Med Chem Lett, 2012).

These molecules were tested against 3',5'-cyclic-AMP phosphodiesterase 4B (Homo sapiens) (UniProt Q07343) (assay: Inhibition of recombinant His-tagged PDE4B expressed in Sf9 cells preincubated for 15 mins before cAMP addition measured after 1 hr by luminescence assay).
Sequence of 3',5'-cyclic-AMP phosphodiesterase 4B (Homo sapiens) (Q07343 whole entry): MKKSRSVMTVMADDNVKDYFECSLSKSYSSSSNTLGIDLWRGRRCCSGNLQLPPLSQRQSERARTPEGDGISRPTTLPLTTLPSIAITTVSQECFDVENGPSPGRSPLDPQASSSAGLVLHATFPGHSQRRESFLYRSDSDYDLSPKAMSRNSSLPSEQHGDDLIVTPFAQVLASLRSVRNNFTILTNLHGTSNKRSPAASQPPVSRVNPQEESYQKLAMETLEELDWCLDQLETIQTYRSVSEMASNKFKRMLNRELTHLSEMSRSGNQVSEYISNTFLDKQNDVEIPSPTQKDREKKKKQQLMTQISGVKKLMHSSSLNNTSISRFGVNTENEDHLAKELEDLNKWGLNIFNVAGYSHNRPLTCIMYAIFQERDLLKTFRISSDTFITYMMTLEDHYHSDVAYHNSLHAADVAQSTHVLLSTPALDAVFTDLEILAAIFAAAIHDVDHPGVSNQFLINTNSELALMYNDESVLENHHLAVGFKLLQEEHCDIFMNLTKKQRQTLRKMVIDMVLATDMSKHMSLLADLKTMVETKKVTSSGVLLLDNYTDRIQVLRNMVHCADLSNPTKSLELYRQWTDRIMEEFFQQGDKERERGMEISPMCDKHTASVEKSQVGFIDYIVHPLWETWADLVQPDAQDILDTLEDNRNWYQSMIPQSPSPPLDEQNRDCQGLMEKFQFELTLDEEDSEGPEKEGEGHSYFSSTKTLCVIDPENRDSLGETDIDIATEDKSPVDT

SMILES | inhibition
CCOC(=O)c1cc(-c2ccccc2)n(-c2ccc(/C(C)=C/C(=O)OC)cc2)c1C(=O)c1ccccc1 | Dose-dependent effect
CCOC(=O)/C=C/c1ccc(-n2c(-c3ccccc3)cc(C(=O)OCC)c2C(=O)c2ccccc2)cc1 | Dose-dependent effect

These molecules were tested against 3',5'-cyclic-AMP phosphodiesterase 4B (Homo sapiens) (UniProt Q07343) (assay: Inhibition of recombinant His-tagged PDE4B expressed in Sf9 cells at 30 uM preincubated for 15 mins before cAMP addition measured after 1 hr by luminescence assay).

SMILES | inhibition [%]
CCOC(=O)c1cc(-c2ccccc2)n(-c2ccc(/C=C/C(=O)OC)cc2)c1C(=O)c1ccccc1 | 45.2
CCCCCCC#Cc1ccc(-n2c(-c3ccccc3)cc(C(=O)OCC)c2C(=O)c2ccccc2)cc1 | 22.1
CCOC(=O)c1cc(-c2ccccc2)n(-c2ccc(/C(C)=C/C(=O)OC)cc2)c1C(=O)c1ccccc1 | 76.7
CCOC(=O)c1cc(-c2ccccc2)n(-c2ccc(-c3ccc(OC)cc3)cc2)c1C(=O)c1ccccc1 | 24.8
CCOC(=O)c1cc(-c2ccccc2)n(-c2ccc(/C=C/C(=O)OC(C)(C)C)cc2)c1C(=O)c1ccccc1 | 36.1
CCOC(=O)/C=C/c1ccc(-n2c(-c3ccccc3)cc(C(=O)OCC)c2C(=O)c2ccccc2)cc1 | 74.7
